pIC50: −log10 of the molar value.
Experiments:
MV4-11 [1] = test: Induction of cell cycle arrest in human MV4-11 cells assessed as accumulation of cells at G2/M phase at 150 nM incubated for 48 hrs by […]PI staining based flow cytometry (reference value: 11.5%); format: functional
HCT-116 = test: Antiproliferative activity against human HCT-116 cells assessed as inhibition of cell proliferation incubated for 72 hrs by MTT assay; format: functional, cell-based; details: HCT-116, 72 h
MV4-11 [2] = test: Induction of cell cycle arrest in human MV4-11 cells assessed as accumulation of cells at G0/G1 phase at 50 nM incubated for 48 hrs by […]PI staining based flow cytometry (reference value: 33.1%); format: functional
MV4-11 [3] = test: Induction of cell cycle arrest in human MV4-11 cells assessed as accumulation of cells at G0/G1 phase at 1350 nM incubated for 48 hrs by […]PI staining based flow cytometry (reference value: 33.1%); format: functional
MV4-11 [4] = test: Induction of apoptosis in human MV4-11 cells assessed as total apoptotic cells at 50 nM incubated for 48 hrs by Annexin V-FITC/PI staining based flow cytometry (reference value: 2.99%); format: functional
MV4-11 [5] = test: Induction of apoptosis in human MV4-11 cells assessed as early apoptotic cells at 50 nM incubated for 48 hrs by Annexin V-FITC/PI staining based flow cytometry (reference value: 0.95%); format: functional
MV4-11 [6] = test: Inhibition of PI3K in human MV4-11 cells assessed as downregulation of phosphorylated AKT expression incubated for 24 hrs by western blot analysis; format: cell-based; details: dose 0.05-0.45 µM, DDE = dose-dependent effect
K562 = test: cells; format: functional, cell-based; details: Homo sapiens, K562, 72 h
Description: Antiproliferative activity against human K562 cells assessed as inhibition of cell proliferation incubated for 72 hrs by CCK8 assay

MV4-11 [7] = test: Induction of cell cycle arrest in human MV4-11 cells assessed as accumulation of cells at G2/M phase at 450 nM incubated for 48 hrs by […]PI staining based flow cytometry (reference value: 11.5%); format: functional
MV4-11 [8] = test: Induction of cell cycle arrest in human MV4-11 cells assessed as accumulation of cells at S phase at 50 nM incubated for 48 hrs by […]PI staining based flow cytometry (reference value: 45.5%); format: functional
MV4-11 [9] = test: Induction of apoptosis in human MV4-11 cells assessed as late apoptotic cells at 50 nM incubated for 48 hrs by Annexin V-FITC/PI staining based flow cytometry (reference value: 2.04%); format: functional
MV4-11 [10] = test: Induction of cell cycle arrest in human MV4-11 cells assessed as accumulation of cells at G2/M phase at 50 nM incubated for 48 hrs by […]PI staining based flow cytometry (reference value: 11.5%); format: functional
MV4-11 [11] = test: Induction of cell cycle arrest in human MV4-11 cells assessed as accumulation of cells at G2/M phase at 1350 nM incubated for 48 hrs by […]PI staining based flow cytometry (reference value: 11.5%); format: functional
MV4-11 [12] = test: Induction of cell cycle arrest in human MV4-11 cells assessed as accumulation of cells at S phase at 150 nM incubated for 48 hrs by […]PI staining based flow cytometry (reference value: 45.5%); format: functional
[13] = biological target: T1, Protein deacetylase HDAC6 (Homo sapiens) (UniProt Q9UBN7); details: dose 100.0 nM
T1 sequence (whole entry): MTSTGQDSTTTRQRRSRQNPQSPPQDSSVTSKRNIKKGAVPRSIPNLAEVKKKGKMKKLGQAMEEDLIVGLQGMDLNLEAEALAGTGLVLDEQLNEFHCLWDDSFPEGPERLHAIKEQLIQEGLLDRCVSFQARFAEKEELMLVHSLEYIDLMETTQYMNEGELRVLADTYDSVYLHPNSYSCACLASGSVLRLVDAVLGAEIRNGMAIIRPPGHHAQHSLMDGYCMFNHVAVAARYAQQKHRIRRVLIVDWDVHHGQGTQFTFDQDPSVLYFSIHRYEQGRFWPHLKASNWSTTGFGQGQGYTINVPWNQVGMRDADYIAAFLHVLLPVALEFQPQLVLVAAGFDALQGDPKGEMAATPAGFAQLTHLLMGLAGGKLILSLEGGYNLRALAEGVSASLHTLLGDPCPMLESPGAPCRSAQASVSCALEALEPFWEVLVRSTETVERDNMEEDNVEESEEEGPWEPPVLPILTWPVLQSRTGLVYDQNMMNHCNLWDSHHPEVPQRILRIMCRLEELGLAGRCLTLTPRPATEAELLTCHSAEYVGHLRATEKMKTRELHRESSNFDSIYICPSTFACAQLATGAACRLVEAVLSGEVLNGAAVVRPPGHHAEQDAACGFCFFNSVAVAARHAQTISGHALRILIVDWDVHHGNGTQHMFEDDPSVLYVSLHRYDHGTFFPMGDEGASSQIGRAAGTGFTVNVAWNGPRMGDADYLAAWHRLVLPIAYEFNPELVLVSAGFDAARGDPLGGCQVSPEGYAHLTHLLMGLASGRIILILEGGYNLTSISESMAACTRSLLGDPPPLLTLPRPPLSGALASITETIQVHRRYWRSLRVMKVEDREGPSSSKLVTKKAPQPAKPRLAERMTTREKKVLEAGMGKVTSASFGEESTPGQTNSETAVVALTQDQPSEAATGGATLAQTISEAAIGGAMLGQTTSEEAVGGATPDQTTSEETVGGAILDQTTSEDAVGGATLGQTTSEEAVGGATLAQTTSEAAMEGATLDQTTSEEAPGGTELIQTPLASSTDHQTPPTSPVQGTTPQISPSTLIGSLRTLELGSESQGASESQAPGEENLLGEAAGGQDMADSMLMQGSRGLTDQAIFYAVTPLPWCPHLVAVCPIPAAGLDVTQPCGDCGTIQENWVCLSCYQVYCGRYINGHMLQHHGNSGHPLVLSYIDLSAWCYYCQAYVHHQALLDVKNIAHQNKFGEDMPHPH
Description: Inhibition of HDAC6 (unknown origin) at 100 nM

MV4-11 [14] = test: Induction of apoptosis in human MV4-11 cells assessed as early apoptotic cells at 150 nM incubated for 48 hrs by Annexin V-FITC/PI staining based flow cytometry (reference value: 0.95%); format: functional
MV4-11 [15] = test: Induction of apoptosis in human MV4-11 cells assessed as total apoptotic cells at 150 nM incubated for 48 hrs by Annexin V-FITC/PI staining based flow cytometry (reference value: 2.99%); format: functional
MV4-11 [16] = test: Induction of apoptosis in human MV4-11 cells assessed as necrotic cells at 50 nM incubated for 48 hrs by Annexin V-FITC/PI staining based flow cytometry (reference value: 0.51%); format: functional
A549 = test: Antiproliferative activity against human A549 cells assessed as inhibition of cell proliferation incubated for 72 hrs by MTT assay; format: functional, cell-based; details: A549, 72 h
MV4-11 [17] = test: Induction of apoptosis in human MV4-11 cells assessed as viable cells at 150 nM incubated for 48 hrs by Annexin V-FITC/PI staining based flow cytometry (reference value: 96.5%); format: functional; details: read-out: Activity
[18] = biological target: T2, Protein deacetylase HDAC6 (Homo sapiens, UniProt Q9UBN7); test: Inhibition of HDAC6 (unknown origin)
T2 sequence (Q9UBN7 whole entry): T1 sequence (whole entry)

pIC50 (HCT-116): 4.79
pIC50 (K562): 6.92
inhibition [13]: 90%
pIC50 (A549): 4.96
pIC50 [18]: 8.35
Compound: O=C(NO)c1ccc(Cn2cc(-c3cccc4[nH]ncc34)nc(N3CCOCC3)c2=O)cc1
Activity (MV4-11 [1]): 32.9%
Activity (MV4-11 [2]): 28.4%
Activity (MV4-11 [3]): 15.2%
Activity (MV4-11 [4]): 7.2%
Activity (MV4-11 [5]): 3.53%
inhibition (MV4-11 [6]): Dde
Activity (MV4-11 [7]): 38.3%
Activity (MV4-11 [8]): 37.8%
Activity (MV4-11 [9]): 3.67%
Activity (MV4-11 [10]): 24.6%
Activity (MV4-11 [11]): 51.8%
Activity (MV4-11 [12]): 31%
Activity (MV4-11 [14]): 2.44%
Activity (MV4-11 [15]): 16.94%
Activity (MV4-11 [16]): 0.34%
viability at 0.15 µM (MV4-11 [17]): 79.6%
